Where two headings read alike, the source gives them in different places.
Tests used:
hGPR35 [1] = target: T1, hGPR35 (Homo sapiens, UniProt Q9HC97); test: DMR agonism assay in CHO-GPR35 cells; type: cell-based
T1 construct: expressed in transfected cells
Method: (§1) CHO-GPR35 cells were the same as our previously reported. CHO-GPR35 cells were cultured in an F12 medium supplemented with 10% FBS, penicillin (50 μg/ml), streptomycin (100 μg/ml) and zeocin (200 μg/ml) at 37°C under 5% CO2. HEK293 cells were purchased from the National Collection of Authenticated Cell Cultures (Shanghai, China) and cultured in DMEM medium supplemented with 10% FBS, penicillin (50 μg/ml) and streptomycin (100 μg/ml) and at 37°C under 5% CO2.
(§2) When the cells approached 90% confluence, they were seeded in 384-well biosensor plates with a density of 1.5 × 10^4 CHO-GPR35 or 2.5 × 10^4 HEK293-GLP-1R cells/well and cultured for 24 h. The culture medium in the 384-well biosensor plates was replaced with 30 μl of Hank’s balanced salt solution (1 × HBSS) and then further incubated inside the system for 1 h before measurement. For the dynamic mass redistribution (DMR) agonism assay, a 2-min baseline was first established, followed by adding compounds using the multi-channel pipette, and the compound-triggered DMR responses were recorded for approximately 1 h. […] For DMR antagonism assay, cells were initially treated with either an antagonist or compound for 1 h in GPR35 and 90 min in GLP-1R assays, respectively. […] All DMR responses were background-corrected.

hGPR35 [2] = target: T1, hGPR35; test: DMR antagonism (desensitization) assay in CHO-GPR35 cells, zaprinast challenge; type: cell-based; conditions: for GPR35 receptor activity (result in words): CHO-GPR35 cells, desensitization when stimulated by agonist zaprinast
Method: as §1, §2

T1 sequence (Q9HC97 whole entry): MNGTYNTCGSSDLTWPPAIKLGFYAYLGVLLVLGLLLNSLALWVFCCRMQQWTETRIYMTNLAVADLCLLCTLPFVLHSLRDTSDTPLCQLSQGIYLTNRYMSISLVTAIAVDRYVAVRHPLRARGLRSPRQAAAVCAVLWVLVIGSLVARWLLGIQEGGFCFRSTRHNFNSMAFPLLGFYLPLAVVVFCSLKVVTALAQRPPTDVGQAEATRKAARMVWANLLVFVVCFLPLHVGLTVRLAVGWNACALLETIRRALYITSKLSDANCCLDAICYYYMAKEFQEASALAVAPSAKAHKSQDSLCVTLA

Structure (SMILES) | compound-triggered DMR signal in CHO-GPR35 cells (hGPR35 [1]) | GPR35 receptor activity (result in words) (hGPR35 [2]) | IC50 (hGPR35 [2]; read-out: IC50 (hGPR35, DMR desensitization)) | IC50 (hGPR35 [2])
CC(C)NC(=O)c1cccc(-c2noc(CCc3c[nH]c4ccccc34)n2)c1 [F545-1970] | do not show a significant increase in DMR signal | GPR35 receptor antagonistic activity, with relatively weak activity | 38.8 µM | –
COCC12CCN(c3ccc(C#N)c(C(F)(F)F)c3)CC1CN(C(=O)CCc1ccccc1)C2 (stereo not drawn) [S948-0241] | do not show a significant increase in DMR signal | GPR35 receptor antagonistic activity, with relatively weak activity | – | 67.9 µM

From publication PMC11167311, “Revolutionizing GPCR–ligand predictions: DeepGPCR with experimental validation for high-precision drug discovery” (Briefings in Bioinformatics, 2024)
